Reference: patent publication US12241087B2, “Compositions and methods for differentiating stem cells into NK cells” (CRISPR THERAPEUTICS AG, priority 2020, dated 2025)

Experiments:
iPSC [1] = assay: CD45/CD56 expression on day 28 after early modulation of WNT signaling; assay type: cell-based, human
Description: For iPSC-HSPC differentiation optimization, CD45/CD56 expression on day 28 was measured (FIG. 10). The HSPC cells on day 6 were further differentiated to iNK in the StemPro-34—based differentiation media Table 12) in the presence of IL7, IL15, SCF. Flt3L, (IL3 was added for days 6-14 only). […] However, it was not an optimal condition as the single cells production and expansion was lower than in conditions in the presence of Activin A molecule (data not shown). Due to low CD56^+ cells formation on day 28, the HSPC to iNK differentiation conditions was optimized.

iPSC [2] = assay: Effect of CHIR-99021 concentration in NK-MED-005c medium on iNK induction; assay type: cell-based, human; conditions: 2.5, 3.5 or 4.5 μM, differentiation day 20, AP2.0
Description: To determine the optimal concentration of CHIR-99021, different concentrations (2.5 μM, 3.5 μM or 4.5 μM) were added to the NK-MED-005c medium (Table 30) to test their effect on iNK induction. Differentiation proceeded according to Protocol 2 (AP2.0) as described in Example 11. Cells were collected and analyzed using flow cytometry to detect CD45^+CD56^+ cells at differentiation day 20.

iPSC [3] = assay: Effect of WNT-C59 in NK-MED-006 medium on iNK induction; assay type: cell-based, human; conditions: 2 μM, day 20 cultures, AP2.0
Description: The effect of including WNT-C59 (2 μM) in NK-MED-006 medium during iNK induction using the AP2.0 protocol was examined. […] The addition of WNT-C59 increased proportion of cells expressing non-NK lineage markers.

HSPC [4] = assay: Design of Experiment (DoE) I, day 6 to day 20; assay type: cell-based, human; conditions: differentiation and number of cells at day 20
Description: This Example reports the identification of optimized concentrations for certain components in the base media. A design of Experiment (DoE) study was performed to determine the concentrations of zinc sulfate, β-mercaptoethanol, human serum, and glucose that would provide the most differentiation and increased number of cells at differentiation day 20. These factors were selected based on known chemical/biological effects of them in affect general cell proliferation and differentiation. Potential positive/negative involvement of β-mercaptoethanol, zinc ion, human serum, and glucose in NIK cell or lymphocyte cell proliferation, killer cell receptor function, and cytotoxicity have been previously reported. There were no known studies conducted on testing optimal range of these factors in NK cell induction from HSPC.

HSPC [5] = assay: Effect of β-mercaptoethanol on differentiation, CD45 and CD56 expression; assay type: cell-based; conditions: 50 μM in DMEM/F12 media with low zinc, low human serum
Description: To determine the effects of β-mercaptoethanol on differentiation, CD45+ and CD56+ expression was measured in cells cultured in Stempro34 media, DMEM/F12 media with low zinc, low human serum, and no β-mercaptoethanol (bME), or DMEM/F12 media with low zinc, low human serum, and 50 μM β-mercaptoethanol.

HSPC [6] = assay: Stage II basal media testing (HSPC to iNK), day 21 single cells; assay type: cell-based, human; conditions: in StemPro-based media
Description: This Example investigates the use of various alternative base media that can be used for Stage II differentiation. […] The HSPC to iNK differentiation from day 6 further on was done in StemPro-34—based media (Table 12). […] In this Example, the […] until day 6 as described in Example 2 (i.e., steps 1-5). Each media was supplemented with 20 ng/mL IL7, 20 ng/mL IL15, 20 ng/mL SCF, 20 ng/mL Flt3L and 5 ng/mL of IL-3 for days 6-14 and 20 ng/mL IL7, 20 ng/mL IL15, 20 ng/mL SCF, 20 ng/mL Flt3L for days 14-21 of differentiation.
Day 21 single cells were profiled for CD45^+/CD56^+, CD56^+/NKG2D^+, CD56^+/CD94^+, and CD56^+/CD16^+ expression (FIG. 12). […] The DMEM/F12 2:1 basal media was chosen due to its price and higher availability for scale up production.

## Cc1cnc(-c2cnc(NCCNc3ccc(C#N)cn3)nc2-c2ccc(Cl)cc2Cl)[nH]1 [CHIR-99021, 6-[[2-[[4-(2,4-Dichlorophenyl)-5-(5-methyl-1H-imidazol-2-yl)-2-pyrimidinyl]amino]ethyl]amino]-3-pyridinecarbonitrile]
iPSC [1]; day 28, condition #5, StemPro-34 based media
  CD56+ percentage: highest
iPSC [1]; versus conditions with Activin A, data not shown
  single cells production and expansion: lower
iPSC [2]
  proportion of CD45+CD56+ cells: highest proportion of CD45^+CD56^+ cells were collected using a moderate amount

## Cc1cc(-c2ccc(CC(=O)Nc3ccc(-c4cccnc4)cc3)cc2)ccn1 [WNT-C59]
iPSC [3]
  proportion of cells expressing non-NK lineage markers: increased
  proportion of iNK that expressed the myeloid progenitor marker CD33: altered

## O=S(=O)([O-])[O-].[Zn+2] [Zinc sulfate]
HSPC [4]
  direction of effect in DoE I: positive effect

## OCCS [β-mercaptoethanol]
HSPC [5]
  effect on iNK cell induction: negative effect
HSPC [4]
  direction of effect in DoE I: negative effect
HSPC [6]
  iNK differentiation: prevented iNK differentiation
